Consider 23 molecules from patent US7476666B2, “HIV integrase inhibitors” (Merck & Co., Inc., priority 2004, dated 2009).

The subject of this assay is acute HIV infection of T-lymphoid cells. The assay is described as follows: Inhibition of acute HIV infection of T-lymphoid cells (spread assay). Format: cell-based. The settings on record: Human immunodeficiency virus 1. How it is done:
An assay for the inhibition of acute HIV infection of T-lymphoid cells (alternatively referred to herein as the “spread assay”) was conducted in accordance with Vacca, J. P. et al., Proc. Natl. Acad. Sci. USA 1994, 91: 4096.
For `COC(=O)c1nn2c(c1O)C(=O)N(Cc1ccc(F)cc1)CCC2` [Example 30, Methyl 5-(4-Fluorobenzyl)-3-hydroxy-4-oxo-5,6,7,8-tetrahydro-4H-pyrazolo[1,5-a][1,4]diazepine-2-carboxylate], the IC95 (as a rule, the point of the concentration-response curve where the effect stands at 95%) was ≤ 10 µM.
The result for `CN1CC(c2cccc(Br)c2)n2nc(C(=O)NCc3ccc(F)cc3)c(O)c2C1=O` (centres unmarked) [Example 43, 7-(3-Bromophenyl)-N-(4-fluorobenzyl)-3-hydroxy-5-methyl-4-oxo-4,5,6,7-tetrahydropyrazolo[1,5-a]pyrazine-2-carboxamide] reads ≤ 10 µM; that for `O=C(NCc1ccc(F)cc1)c1nn2c(c1O)C(=O)NCCC2` [Example 29, N-(4-Fluorobenzyl)-3-hydroxy-4-oxo-5,6,7,8-tetrahydro-4H-pyrazolo[1,5-a][1,4]diazepine-2-carboxamide], ≤ 10 µM; that for `CNC(=O)c1cc(F)ccc1CNC(=O)c1nn2c(c1O)C(=O)N(C)CC2c1ccccn1` (centres unmarked) [Example 47, N-{4-Fluoro-2-[(methylamino)carbonyl]benzyl}-3-hydroxy-5-methyl-4-oxo-7-pyridin-2-yl-4,5,6,7-tetrahydropyrazolo[1,5-a]pyrazine-2-carboxamide], ≤ 10 µM.
Take `CNC(=O)c1nn2c(c1O)C(=O)N(Cc1ccc(F)cc1)CC2c1ccccc1` (centres unmarked) [Example 4, 5-(4-Fluorobenzyl)-3-hydroxy-N-methyl-4-oxo-7-phenyl-4,5,6,7-tetrahydropyrazolo[1,5-a]pyrazine-2-carboxamide]: the IC95 is ≤ 10 µM.
Take `CC(C)C1CN(C)C(=O)c2c(O)c(C(=O)NCc3ccc(F)cc3)nn21` (centres unmarked) [Example 48, N-(4-Fluorobenzyl)-3-hydroxy-7-isopropyl-5-methyl-4-oxo-4,5,6,7-tetrahydropyrazolo[1,5-a]pyrazine-2-carboxamide]: the IC95 was ≤ 10 µM.
The result for `CN1CC(C(=O)N2CCCCC2)n2nc(C(=O)NCc3ccc(F)cc3)c(O)c2C1=O` (centres unmarked) [Example 7, N-(4-Fluorobenzyl)-3-hydroxy-5-methyl-4-oxo-7-(piperidin-1-ylcarbonyl)-4,5,6,7-tetrahydropyrazolo[1,5-a]pyrazine-2-carboxamide] reads ≤ 10 µM; that for `CNC(=O)c1cc(F)ccc1CNC(=O)c1nn2c(c1O)C(=O)N(C)C[C@H]2c1ccccc1` [Example 34, (7R)-N-{4-Fluoro-2-[(methylamino)carbonyl]benzyl}-3-hydroxy-5-methyl-4-oxo-7-phenyl-4,5,6,7-tetrahydropyrazolo[1,5-a]pyrazine-2-carboxamide], ≤ 10 µM; that for `CNC(=O)c1cc(F)ccc1CNC(=O)c1nn2c(c1O)C(=O)N(C)CC2c1ccccc1` (centres unmarked) [Example 3, N-(4-Fluoro-2-[(methylamino)carbonyl]benzyl)-3-hydroxy-5-methyl-4-oxo-7-phenyl-4,5,6,7-tetrahydropyrazolo[1,5-a]pyrazine-2-carboxamide], ≤ 10 µM.
In the case of `CC1Cn2nc(C(=O)NCc3ccc(F)cc3)c(O)c2C(=O)N1C` (centres unmarked) [Example 5, 5,6-Dimethyl-N-(4-fluorobenzyl)-3-hydroxy-4-oxo-4,5,6,7-tetrahydropyrazolo[1,5-a]pyrazine-2-carboxamide], the IC95 was ≤ 10 µM.
Under `CN1CC(c2cccc(C#N)c2)n2nc(C(=O)NCc3ccc(F)cc3)c(O)c2C1=O` (centres unmarked) [Example 44, 7-(3-Cyanophenyl)-N-(4-fluorobenzyl)-3-hydroxy-5-methyl-4-oxo-4,5,6,7-tetrahydropyrazolo[5,5-a]pyrazine-2-carboxamide] stands ≤ 10 µM.
In the case of `CCNC(=O)c1cc(F)ccc1CNC(=O)c1nn2c(c1O)C(=O)N(C)C[C@@H]2c1ccccc1` [Example 40, (7S)-N-{2-[(Ethylamino)carbonyl]-4-fluorobenzyl}-3-hydroxy-5-methyl-4-oxo-7-phenyl-4,5,6,7-tetrahydropyrazolo[1,5-a]pyrazine-2-carboxamide], the IC95 is ≤ 10 µM.
Under `O=C(NCc1ccc(Cl)c(Cl)c1)c1nn2c(c1O)C(=O)N(CC1CC1)CC2` [Example 21, 5-Cyclopropylmethyl-N-(3,4-dichlorobenzyl)-3-hydroxy-4-oxo-4,5,6,7-tetrahydropyrazolo[1,5-a]pyrazine-2-carboxamide] stands ≤ 10 µM.
Under `Cn1c(=O)c2c(O)c(C(=O)NCc3ccc(F)cc3)nn2c2ccccc21` [Example 32, N-(4-fluorobenzyl)-3-hydroxy-5-methyl-4-oxo-4,5-dihydropyrazolo[1,5-a]quinoxaline-2-carboxamide] stands ≤ 10 µM; under `O=C(NCc1ccc(Cl)c(Cl)c1)c1nn2c(c1O)C(=O)N(CC(=O)N1CCOCC1)CC2` [Example 20, N-(3,4-Dichlorobenzyl)-3-hydroxy-5-[2-(4-morpholinyl)-2-oxoethyl]-4-oxo-4,5,6,7-tetrahydropyrazolo[1,5-a]pyrazine-2-carboxamide], ≤ 10 µM.
Under `Cc1cn(C)c(=O)c2c(O)c(C(=O)NCc3ccc(F)cc3)nn12` [Example 10, 5,7-Dimethyl-N-(4-fluorobenzyl)-3-hydroxy-4-oxo-4,5-dihydropyrazolo[1,5-a]pyrazine-2-carboxamide] stands ≤ 10 µM.
Consider `CNC(=O)c1cc(F)ccc1CNC(=O)c1nn2c(c1O)C(=O)N(C)CC2C(C)C` (centres unmarked) [Example 49, N-{4-Fluoro-2-[(methylamino)carbonyl]benzyl}-3-hydroxy-7-isopropyl-5-methyl-4-oxo-4,5,6,7-tetrahydropyrazolo[1,5-a]pyrazine-2-carboxamide], for which the IC95 was ≤ 10 µM.
As to `CN1C[C@@H](c2ccccc2)n2nc(C(=O)NCc3ccc(F)cc3C(N)=O)c(O)c2C1=O` [Example 41, (7R)-N-[2-(Aminocarbonyl)-4-fluorobenzyl]-3-hydroxy-5-methyl-4-oxo-7-phenyl-4,5,6,7-tetrahydropyrazolo[1,5-a]pyrazine-2-carboxamide], the 95% effect concentration (IC95) is ≤ 10 µM.
Take `CN1CC(CN2CCCCC2)n2nc(C(=O)NCc3ccc(F)cc3)c(O)c2C1=O` (centres unmarked) [Example 9, N-(4-fluorobenzyl)-3-hydroxy-5-methyl-4-oxo-7-(piperidin-1-ylmethyl)-4,5,6,7-tetrahydropyrazolo[1,5-a]pyrazine-2-carboxamide]: the concentration for an effect of 95% (IC95) was ≤ 10 µM.
Under `CCCCNC(=O)c1nn2c(c1O)C(=O)N(Cc1ccc(F)cc1)CC2` [Example 24, N-Butyl-5-(4-fluorobenzyl)-3-hydroxy-4-oxo-4,5,6,7-tetrahydropyrazolo[1,5-a]pyrazine-2-carboxamide] stands ≤ 10 µM; under `CN(C)C(=O)c1cc(F)ccc1CNC(=O)c1nn2c(c1O)C(=O)N(C)C[C@@H]2c1ccccc1` [Example 38, (7S)-N-{2-[(Dimethylamino)carbonyl]-4-fluorobenzyl}-3-hydroxy-5-methyl-4-oxo-7-phenyl-4,5,6,7-tetrahydropyrazolo[1,5-a]pyrazine-2-carboxamide], ≤ 10 µM.
Regarding `CN1C[C@@H](c2ccccc2)n2nc(C(=O)NCc3ccc(F)cc3C(=O)NC3CC3)c(O)c2C1=O` [Example 35, (7R)-N-{2-[(Cyclopropylamino)carbonyl]-4-fluorobenzyl}-3-hydroxy-5-methyl-4-oxo-7-phenyl-4,5,6,7-tetrahydropyrazolo[1,5-a]pyrazine-2-carboxamide], the IC95 is ≤ 10 µM.
Under `CN1C[C@H](c2ccccc2)n2nc(C(=O)NCc3ccc(F)cc3C(=O)NC3CC3)c(O)c2C1=O` [Example 36, (7S)-N-{2-[(Cyclopropylamino)carbonyl]-4-fluorobenzyl}-3-hydroxy-5-methyl-4-oxo-7-phenyl-4,5,6,7-tetrahydropyrazolo[1,5-a]pyrazine-2-carboxamide] stands ≤ 10 µM.
